According to PubChem BioAssay AID248 (DTP/NCI, 2004):
Where “and” joins values, the source holds several entries; their conditions need not be identical. Identical values can stand only once. Inconclusive results and toxic doses are left out. Rule as the data show it: active = T/C of 150% or more; inactive = T/C below 125%.

Test system: L1210 leukemia ip in BDF1 mice, survival T/C
Experiment: NCI In Vivo Anticancer Drug Screen. Data for tumor model L1210 Leukemia (intraperitoneal) in B6D2F1 (BDF1) mice
Details: endpoint: mean survival time, higher = longer survival
In short: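 Tumor cells were implanted, animals were treated, and survival was followed. The result divides the treated measurement by the vehicle-control measurement.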

[1] = dose: 50.0 mg/kg/injection, schedule: Q01DX001 (ip), vehicle: saline
[2] = dose: 100.0 mg/kg/injection, schedule: Q01DX001 (ip), vehicle: saline
[3] = dose: 200.0 mg/kg/injection, schedule: Q01DX001 (ip), vehicle: saline
[4] = dose: 200.0 mg/kg/injection, schedule: Q01DX009 (ip), vehicle: saline
[5] = dose: 400.0 mg/kg/injection, schedule: Q01DX001 (ip), vehicle: saline
[6] = dose: 400.0 mg/kg/injection, schedule: Q01DX009 (ip), vehicle: saline
[7] = dose: 100.0 mg/kg/injection, schedule: Q01DX001 (ip), vehicle: Klucel (hydroxypropylcellulose) (HPC)
[8] = dose: 100.0 mg/kg/injection, schedule: Q01DX009 (ip), vehicle: Klucel (hydroxypropylcellulose) (HPC)
[9] = dose: 100.0 mg/kg/injection, schedule: Q04DX003 (ip), vehicle: Klucel (hydroxypropylcellulose) (HPC)
[10] = dose: 200.0 mg/kg/injection, schedule: Q01DX009 (ip), vehicle: Klucel (hydroxypropylcellulose) (HPC)
[11] = dose: 200.0 mg/kg/injection, schedule: Q04DX003 (ip), vehicle: Klucel (hydroxypropylcellulose) (HPC)
[12] = dose: 400.0 mg/kg/injection, schedule: Q01DX009 (ip), vehicle: Klucel (hydroxypropylcellulose) (HPC)
[13] = dose: 400.0 mg/kg/injection, schedule: Q04DX003 (ip), vehicle: Klucel (hydroxypropylcellulose) (HPC)

Measured: T/C

CC(=O)OCC1OC(n2cnc3c(N)ncnc32)C(OC(C)=O)C1OC(C)=O (stereo not given)
inactive: [1] 100 % of control | [2] 110 % of control | dose: 100.0 mg/kg/injection, schedule: Q01DX005 (ip), vehicle: saline 93 % of control | [3] 94 % of control and 106 % of control | dose: 200.0 mg/kg/injection, schedule: Q01DX005 (ip), vehicle: saline 95 % of control | [4] 104 % of control | [5] 94 % of control | [6] 109 % of control

O=C(NC/C=C/Br)C(F)(F)F
inactive: dose: 100.0 mg/kg/injection, schedule: Q01DX001 (ip), vehicle: saline with Tween-80 118 % of control | dose: 100.0 mg/kg/injection, schedule: Q04DX003 (ip), vehicle: saline with Tween-80 98 % of control | dose: 200.0 mg/kg/injection, schedule: Q01DX001 (ip), vehicle: saline with Tween-80 96 % of control | dose: 200.0 mg/kg/injection, schedule: Q04DX003 (ip), vehicle: saline with Tween-80 95 % of control | dose: 400.0 mg/kg/injection, schedule: Q01DX001 (ip), vehicle: saline with Tween-80 95 % of control | dose: 400.0 mg/kg/injection, schedule: Q04DX003 (ip), vehicle: saline with Tween-80 97 % of control

COC(=O)c1cc(S(=O)(=O)c2cc(C)c(O)c(C(=O)OC)c2)cc(C)c1O
inactive: dose: 100.0 mg/kg/injection, schedule: Q04DX002 (ip), vehicle: carboxymethylcellulose (CMC) 92 % of control | dose: 200.0 mg/kg/injection, schedule: Q04DX002 (ip), vehicle: carboxymethylcellulose (CMC) 95 % of control | dose: 400.0 mg/kg/injection, schedule: Q04DX002 (ip), vehicle: carboxymethylcellulose (CMC) 95 % of control

CC1(C)CC2(C)OC3(C)CC(C)(C)OC3(C)OC2(C)O1 (stereo not given)
inactive: [7] 107 % of control | dose: 200.0 mg/kg/injection, schedule: Q01DX001 (ip), vehicle: Klucel (hydroxypropylcellulose) (HPC) 102 % of control | dose: 400.0 mg/kg/injection, schedule: Q01DX001 (ip), vehicle: Klucel (hydroxypropylcellulose) (HPC) 102 % of control

Nc1ncnc2c1c(-c1nn[nH]n1)cn2C1OC(CO)C(O)C1O (stereo not given)
inactive: dose: 12.5 mg/kg/injection, schedule: Q01DX005 (ip), vehicle: saline 121 % of control | dose: 12.5 mg/kg/injection, schedule: Q01DX009 (ip), vehicle: saline 122 % of control | dose: 50.0 mg/kg/injection, schedule: Q01DX005 (ip), vehicle: saline 108 % of control | dose: 50.0 mg/kg/injection, schedule: Q01DX009 (ip), vehicle: saline 98 % of control

O=C(Nc1ccc(C2=NCCN2)cc1)c1ccc(N=Nc2ccc(C(=O)Nc3ccc(C4=NCCN4)cc3)cc2)cc1
inactive: dose: 125.0 mg/kg/injection, schedule: Q01DX Z (ip), vehicle: water 106 % of control | dose: 250.0 mg/kg/injection, schedule: Q01DX Z (ip), vehicle: water 107 % of control

OC1C2CCN(CC2)C1CNC12CC3CC(CC(C3)C1)C2 (stereo not given)
inactive: dose: 100.0 mg/kg/injection, schedule: Q04DX003 (ip), vehicle: saline 97 % of control | dose: 200.0 mg/kg/injection, schedule: Q04DX003 (ip), vehicle: saline 96 % of control

CCOC(=O)C1C2CCC/C(=N\NS(=O)(=O)c3ccc(C)cc3)C21 (stereo not given)
inactive: dose: 100.0 mg/kg/injection, schedule: Q04DX002 (ip), vehicle: Klucel (hydroxypropylcellulose) (HPC) 104 % of control | dose: 200.0 mg/kg/injection, schedule: Q04DX002 (ip), vehicle: Klucel (hydroxypropylcellulose) (HPC) 100 % of control | dose: 400.0 mg/kg/injection, schedule: Q04DX002 (ip), vehicle: Klucel (hydroxypropylcellulose) (HPC) 96 % of control

CSc1cc(N)nc2nc[nH]c12
inactive: [2] 105 % of control | [3] 98 % of control | [5] 98 % of control

Cc1ccc(/C(=N\N=C(N)N)C2CC2)cc1C
inactive: dose: 15.0 mg/kg/injection, schedule: Q01DX Z (ip), vehicle: methylcellulose (MC) 103 % of control | dose: 30.0 mg/kg/injection, schedule: Q01DX Z (ip), vehicle: methylcellulose (MC) 97 % of control | dose: 30.0 mg/kg/injection, schedule: Q01DX Z (oral), vehicle: methylcellulose (MC) 95 % of control | dose: 60.0 mg/kg/injection, schedule: Q01DX Z (ip), vehicle: methylcellulose (MC) 93 % of control | dose: 60.0 mg/kg/injection, schedule: Q01DX Z (oral), vehicle: methylcellulose (MC) 88 % of control

C=CCSc1ccnc(N)n1
inactive: dose: 50.0 mg/kg/injection, schedule: Q01DX001 (ip), vehicle: Klucel (hydroxypropylcellulose) (HPC) 103 % of control | [7] 101 % of control

CCOC(=O)c1[nH]c2c(c1CC(CC)[N+](=O)[O-])CCCC2 (stereo not given)
inactive: [8] 96 % of control | [9] 93 % of control | [10] 98 % of control | [11] 93 % of control | [12] 101 % of control | [13] 95 % of control

O=C(CCCC(=O)NNC(=O)Nc1cc(Cl)ccc1Cl)NNC(=O)Nc1cc(Cl)ccc1Cl
inactive: [1] 108 % of control | [2] 102 % of control | [3] 102 % of control | [5] 102 % of control

c1ccc(-c2nnc(-c3ccccn3)s2)nc1
inactive: dose: 50.0 mg/kg/injection, schedule: Q01DX001 (ip), vehicle: water 108 % of control | dose: 100.0 mg/kg/injection, schedule: Q01DX001 (ip), vehicle: water 103 % of control | dose: 200.0 mg/kg/injection, schedule: Q01DX001 (ip), vehicle: water 106 % of control | dose: 400.0 mg/kg/injection, schedule: Q01DX001 (ip), vehicle: water 111 % of control

CC1c2c(ccc3c2CCC=C3)CCC1CC1=CCCc2ccc3ccccc3c21 (stereo not given)
inactive: dose: 100.0 mg/kg/injection, schedule: Q01DX009 (ip), vehicle: saline 107 % of control | [9] 103 % of control | [4] 95 % of control | [11] 90 % of control | [6] 93 % of control | [13] 95 % of control

CCOC(=O)N1CCN(P(=O)(c2ccccc2)N2CCN(C(=O)OCC)CC2)CC1
inactive: [8] 93 % of control | [10] 93 % of control | [12] 96 % of control

S=C(c1ccc2ccccc2n1)N1CCOCC1
inactive: [9] 100 % of control | [11] 91 % of control | [13] 105 % of control

COc1ccc(Cl)cc1NC(=O)Oc1cc(C)c(Cl)c(C)c1
inactive: [8] 104 % of control | [10] 95 % of control | [12] 112 % of control
